Measurements published in ChEMBL document CHEMBL1201862, “PubChem BioAssay data set” (2004).
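Method: 48-hour compound exposure of cells in 96-well plates, five concentrations, linear interpolation of endpoints. GI50 = concentration required for 50% inhibition of growth.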 Activity calls are given as the source filed them. No stated cut-off is given here; in the data, active = GI50 up to about 1.1 µM and inactive = higher.

Assays:
Assay in all cases: NCI tumour cell line growth inhibition, 48 h
[1] = test system: RXF 393
[2] = test system: SF-539
[3] = test system: OVCAR-5
[4] = test system: NCI-H522
[5] = test system: UACC-257
[6] = test system: MDA-N
[7] = test system: A549
[8] = test system: Malme-3M
[9] = test system: M14
[10] = test system: DU-145
[11] = test system: SK-OV-3
[12] = test system: CCRF-CEM
[13] = test system: KM12
[14] = test system: PC-3
[15] = test system: SNB-75
[16] = test system: SW-620
[17] = test system: SK-MEL-28
[18] = test system: NCI-H226
[19] = test system: U-251
[20] = test system: HOP-92

Fc1ccc(Oc2nc3ccc(C(F)(F)F)cc3nc2-c2ccccc2)cc1
GI50 [1]: 67.5 µM (inactive)
GI50 [2]: 30.8 µM (inactive)
GI50 [3]: > 100 µM (inactive)
GI50 [4]: > 100 µM (inactive)
GI50 [5]: 47.2 µM (inactive)
GI50 [6]: 99.5 µM (inactive)
GI50 [7]: 36.6 µM (inactive)
GI50 [8]: 38 µM (inactive)
GI50 [9]: 50.4 µM (inactive)
GI50 [10]: > 100 µM (inactive)
GI50 [11]: 81.5 µM (inactive)
GI50 [12]: > 10 µM (inactive)
GI50 [13]: > 100 µM (inactive)
GI50 [14]: > 100 µM (inactive)
GI50 [15]: 27.9 µM (inactive)
GI50 [16]: > 10 µM (inactive)

CS(=O)(=O)CC(=O)c1ccccc1
GI50 [1]: > 100 µM (inactive)
GI50 [17]: > 100 µM (inactive)
GI50 [2]: > 100 µM (inactive)
GI50 [3]: > 100 µM (inactive)
GI50 [18]: > 100 µM (inactive)
GI50 [4]: > 100 µM (inactive)
GI50 [5]: > 100 µM (inactive)
GI50 [6]: > 100 µM (inactive)
GI50 [7]: > 100 µM (inactive)
GI50 [8]: > 100 µM (inactive)
GI50 [9]: > 100 µM (inactive)
GI50 [10]: > 100 µM (inactive)
GI50 [11]: > 100 µM (inactive)
GI50 [12]: > 100 µM (inactive)
GI50 [13]: > 100 µM (inactive)
GI50 [14]: > 100 µM (inactive)
GI50 [19]: > 100 µM (inactive)
GI50 [15]: 38.8 µM (inactive)
GI50 [16]: > 100 µM (inactive)

C=C(CCC(C(=O)O)C1CCC2(C)C3=C(CCC12C)C1(C)CCC(O)C(C)(C)C1CC3)C(C)C (configuration not stated)
GI50 [17]: 33.3 µM (inactive)
GI50 [2]: > 100 µM (inactive)
GI50 [3]: > 100 µM (inactive)
GI50 [20]: 60.8 µM (inactive)
GI50 [18]: 30.2 µM (inactive)
GI50 [4]: 16.6 µM (inactive)
GI50 [5]: 97.5 µM (inactive)
GI50 [6]: 86.7 µM (inactive)
GI50 [7]: 17.1 µM (inactive)
GI50 [9]: 40.8 µM (inactive)
GI50 [10]: > 100 µM (inactive)
GI50 [11]: > 100 µM (inactive)
GI50 [12]: > 10 µM (inactive)
GI50 [13]: 6.38 µM (inactive)
GI50 [14]: 77.8 µM (inactive)
GI50 [19]: 22 µM (inactive)
GI50 [15]: 58.9 µM (inactive)
GI50 [16]: 50.9 µM (inactive)

CN(/N=C/c1ccc(C(=O)O)cc1)C1=NCCCCN1
GI50 [17]: > 100 µM (inactive)
GI50 [2]: > 100 µM (inactive)
GI50 [3]: > 100 µM (inactive)
GI50 [18]: > 100 µM (inactive)
GI50 [4]: > 100 µM (inactive)
GI50 [5]: > 100 µM (inactive)
GI50 [6]: > 100 µM (inactive)
GI50 [7]: > 100 µM (inactive)
GI50 [8]: > 100 µM (inactive)
GI50 [9]: > 100 µM (inactive)
GI50 [10]: > 100 µM (inactive)
GI50 [11]: > 100 µM (inactive)
GI50 [12]: > 100 µM (inactive)
GI50 [13]: > 100 µM (inactive)
GI50 [14]: > 100 µM (inactive)
GI50 [19]: > 100 µM (inactive)
GI50 [15]: 98.9 µM (inactive)

CCCCCCCN1C(=O)C(O)(c2ccc(C3(O)C(=O)N(CCCCCCC)c4ccccc43)s2)c2ccccc21 (configuration not stated)
GI50 [17]: 2.07 µM (inactive)
GI50 [2]: 1.79 µM (inactive)
GI50 [3]: 1.68 µM (inactive)
GI50 [20]: 1.84 µM (inactive)
GI50 [5]: 2.07 µM (inactive)
GI50 [6]: 1.99 µM (inactive)
GI50 [9]: 1.79 µM (inactive)
GI50 [10]: 1.65 µM (inactive)
GI50 [11]: 0.753 µM (active)
GI50 [12]: 3.87 µM (inactive)
GI50 [13]: 1.8 µM (inactive)
GI50 [14]: 1.97 µM (inactive)
GI50 [19]: 1.74 µM (inactive)
GI50 [15]: 5.4 µM (inactive)
GI50 [16]: 2.18 µM (inactive)

COC(=O)OC[C@H]1O[C@@H](n2cc(C)c(=O)[nH]c2=O)CC1OC(=O)OC (some centres not stated)
GI50 [1]: > 100 µM (inactive)
GI50 [17]: > 100 µM (inactive)
GI50 [2]: > 100 µM (inactive)
GI50 [3]: > 100 µM (inactive)
GI50 [18]: > 100 µM (inactive)
GI50 [4]: > 100 µM (inactive)
GI50 [6]: > 100 µM (inactive)
GI50 [7]: > 100 µM (inactive)
GI50 [8]: > 100 µM (inactive)
GI50 [9]: > 100 µM (inactive)
GI50 [10]: > 100 µM (inactive)
GI50 [11]: > 100 µM (inactive)
GI50 [12]: > 100 µM (inactive)
GI50 [13]: > 100 µM (inactive)
GI50 [14]: > 100 µM (inactive)
GI50 [19]: > 100 µM (inactive)
GI50 [15]: 95.3 µM (inactive)
GI50 [16]: > 100 µM (inactive)

Cc1ccc(Cc2nn(C)c(=O)n2N)cc1
GI50 [17]: > 100 µM (inactive)
GI50 [2]: > 100 µM (inactive)
GI50 [3]: > 100 µM (inactive)
GI50 [20]: > 100 µM (inactive)
GI50 [18]: > 100 µM (inactive)
GI50 [5]: > 100 µM (inactive)
GI50 [6]: > 100 µM (inactive)
GI50 [7]: > 100 µM (inactive)
GI50 [9]: > 100 µM (inactive)
GI50 [10]: > 100 µM (inactive)
GI50 [11]: > 100 µM (inactive)
GI50 [13]: > 100 µM (inactive)
GI50 [14]: > 100 µM (inactive)
GI50 [19]: > 100 µM (inactive)
GI50 [16]: > 100 µM (inactive)

C#CC(C)(C)OC(=O)C(=[N+]=[N-])C(C)=O
GI50 [1]: > 10 µM (inactive)
GI50 [17]: > 10 µM (inactive)
GI50 [2]: > 10 µM (inactive)
GI50 [3]: > 10 µM (inactive)
GI50 [20]: > 10 µM (inactive)
GI50 [18]: > 10 µM (inactive)
GI50 [5]: > 10 µM (inactive)
GI50 [6]: > 10 µM (inactive)
GI50 [7]: > 10 µM (inactive)
GI50 [8]: > 10 µM (inactive)
GI50 [9]: > 10 µM (inactive)
GI50 [10]: > 10 µM (inactive)
GI50 [11]: > 10 µM (inactive)
GI50 [12]: > 10 µM (inactive)
GI50 [13]: > 10 µM (inactive)
GI50 [14]: > 10 µM (inactive)
GI50 [19]: > 10 µM (inactive)
GI50 [15]: > 10 µM (inactive)
GI50 [16]: > 10 µM (inactive)
